Experimental data published in patent publication US8183380B2, “2-aminoquinolines” (Hoffmann-La Roche Inc., priority 2008, dated 2012).

These compounds were tested against T1, recombinant human 5-HT5A receptor (Homo sapiens, UniProt P47898) (assay: [3H]LSD radioligand binding assay). Details: [3H]LSD (approximately 1 nM); membranes from transiently expressed 5-HT5A receptors in HEK-EBNA cells; Ki from IC50 by Cheng-Prussoff equation.
T1 construct: expressed in transfected cells; host or cells: HEK-EBNA (Human Embryonic Kidney-EBNA) cells, transient cDNA expression; membranes
Procedure: A [^3H]LSD radioligand binding assay was used to determine the affinity of the compounds for the recombinant human 5-HT5A receptor, in membranes from transiently (cDNA) expressed 5-HT5A receptors in Human Embryonic Kidney-EBNA (HEK-EBNA) cells. Assay buffer consisted of Tris (50 mM) buffer containing 1 mM EGTA, 10 mM MgCl2 (pH 7.4) and 10 μM pargyline. The binding assay was carried out in 96-well-plates in the presence of [^3H]LSD (approximately 1 nM), approximately 2 μg/well of membrane protein, and 0.5 mg of Ysi-poly-1-lysine SPA beads in a final volume of 200 μl of buffer. Non-specific binding was defined using methiothepin 2 μM. Compounds were tested at 10 concentrations. All assays were conducted in duplicate and repeated at least two times. Assay plates were incubated for 120 min at room temperature before centrifugation. Bound ligand was determined using a Packard Topcount scintillation counter. IC50 values were calculated using a non-linear curve fitting program and Ki values calculated using the Cheng-Prussoff equation.

T1 sequence (P47898 whole entry): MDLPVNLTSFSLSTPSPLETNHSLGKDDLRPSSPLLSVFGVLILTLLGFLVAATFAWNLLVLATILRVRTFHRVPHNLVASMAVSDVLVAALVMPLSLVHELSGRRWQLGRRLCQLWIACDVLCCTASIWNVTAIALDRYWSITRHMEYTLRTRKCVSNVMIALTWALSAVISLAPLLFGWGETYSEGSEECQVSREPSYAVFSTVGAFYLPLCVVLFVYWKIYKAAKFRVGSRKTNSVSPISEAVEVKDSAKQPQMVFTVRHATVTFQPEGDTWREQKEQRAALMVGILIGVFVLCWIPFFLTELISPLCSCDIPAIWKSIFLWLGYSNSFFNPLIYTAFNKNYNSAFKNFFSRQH

Compound | Ki
O=C(Nc1ccc2nc(N[C@@H]3CCc4ccccc43)ccc2c1)NC1CCN(CCF)CC1 [Example 97, 1-[1-(2-Fluoro-ethyl)-piperidin-4-yl]-3-[2-((R)-indan-1-ylamino)-quinolin-6-yl]-urea] | 2.9 nM
O=C(Nc1ccc2nc(N[C@@H]3CCc4ccccc43)ccc2c1)N[C@@H]1C[C@H]2CC[C@@H](C1)N2C1CC1 [Example 99, 1-((3-exo)-8-Cyclopropyl-8-aza-bicyclo[3.2.1]oct-3-yl)-3-[2-((R)-indan-1-ylamino)-quinolin-6-yl]-urea] | 3.9 nM
CN1[C@@H]2CC[C@H]1C[C@H](NC(=O)Nc1ccc3nc(N[C@@H]4CCc5ccccc54)ccc3c1)C2 [Example 101, 1-[2-((R)-Indan-1-ylamino)-quinolin-6-yl]-3-((3-exo)-8-methyl-8-aza-bicyclo[3.2.1]oct-3-yl)-urea] | 3.7 nM
O=C(Nc1ccc2nc(N[C@@H]3CCc4ccccc43)ccc2c1)N[C@@H]1C[C@H]2CCC[C@@H](C1)N2C1CC1 [Example 110, 1-((3-exo)-9-Cyclopropyl-9-aza-bicyclo[3.3.1]non-3-yl)-3-[2-((R)-indan-1-ylamino)-quinolin-6-yl]-urea] | 7.2 nM
N#CCN1CCC(NC(=O)Nc2ccc3nc(N[C@@H]4CCc5ccccc54)ccc3c2)CC1 [Example 133, 1-(1-Cyanomethyl-piperidin-4-yl)-3-[2-((R)-indan-1-ylamino)-quinolin-6-yl]-urea] | 4.2 nM
CC(C)N1C2CCCC1CC(NC(=O)Nc1ccc3nc(NC4CCc5ccccc54)ccc3c1)C2 [Example 168, 1-[2-((R)-Indan-1-ylamino)-quinolin-6-yl]-3-((3-exo)-9-isopropyl-9-aza-bicyclo[3.3.1]non-3-yl)-urea] | 7.8 nM
CC(C)N1[C@@H]2CC[C@H]1C[C@H](NC(=O)Nc1ccc3nc(N[C@@H]4CCc5ccccc54)ccc3c1)C2 [Example 170, 1-[2-((R)-Indan-1-ylamino)-quinolin-6-yl]-3-((3-exo)-8-isopropyl-8-aza-bicyclo[3.2.1]oct-3-yl)-urea] | 7.1 nM
(2-Methoxy-ethyl)-methyl-sulfonic acid [2-((R)-indan-1-ylamino)quinolin-6-yl]-amide [Example 75] | 8.3 nM

The next lines start with the values.

Ki | Compound
5.7 nM | CS(=O)(=O)CCN1CCC(NC(=O)Nc2ccc3nc(N[C@@H]4CCc5ccccc54)ccc3c2)CC1 [Example 135, 1-[2-((R)-Indan-1-ylamino)-quinolin-6-yl]-3-[1-(2-methanesulfonyl-ethyl)-piperidin-4-yl]-urea]
6.5 nM | CN(C)C(=O)CN1CCC(NC(=O)Nc2ccc3nc(N[C@@H]4CCc5ccccc54)ccc3c2)CC1 [Example 136, 2-(4-{3-[2-((R)-Indan-1-ylamino)-quinolin-6-yl]-ureido}-piperidin-1-yl)-N,N-dimethylacetamide]
1.7 nM | O=C(Nc1ccc2nc(N[C@@H]3CCc4ccccc43)ccc2c1)NC1CCN(CCO)CC1 [Example 137, 1-[1-(2-Hydroxy-ethyl)-piperidin-4-yl]-3-[2-((R)-indan-1-ylamino)-quinolin-6-yl]-urea]
8 nM | CC(C)OC(=O)Nc1ccc2nc(N[C@@H]3CCc4ccccc43)ccc2c1 [Example 138, [2-((R)-Indan-1-ylamino)-quinolin-6-yl]-carbamic acid isopropyl ester]
2.1 nM | COc1cccc2c1C(Nc1ccc3cc(NS(=O)(=O)N4C[C@@H]5C[C@H]4CO5)ccc3n1)CC2 (stereo partly drawn) [Example 148, (1S,4S)-2-Oxa-5-aza-bicyclo[2.2.1]heptane-5-sulfonic acid [2-(7-methoxy-indan-1-ylamino)-quinolin-6-yl]-amide]
14.8 nM | NC(=S)Nc1ccc2nc(N[C@@H]3CCc4ccccc43)ccc2c1 [Example 149, [2-((R)-Indan-1-ylamino)-quinolin-6-yl]-thiourea]
33.7 nM | CC(C)N=C(Nc1ccc2nc(N[C@@H]3CCc4ccccc43)ccc2c1)NC(C)C [Example 166, N-[2-((R)-Indan-1-ylamino)-quinolin-6-yl]-N′,N″-diisopropyl-guanidine]
6.7 nM | CN1CCN(CC(=O)Nc2ccc3nc(N[C@@H]4CCc5ccccc54)ccc3c2)CC1 [Example 210, N-[2-((R)-Indan-1-ylamino)-quinolin-6-yl]-2-(4-methyl-piperazin-1-yl)-acetamide]
